From publication PMC9030691, “Toxicokinetics of β-Amanitin in Mice and In Vitro Drug–Drug Interaction Potential” (Pharmaceutics, 2022)
Entries after “also recorded” stand apart in the source; their conditions may differ.

Assays:
OAT3 = target: T1, OAT3 (Homo sapiens, UniProt Q8TCC7); assay: Uptake of amanitins into HEK293-OAT3 cells; assay type: in vitro ADME; design: expressed in transfected cells; host or cells: HEK293; conditions: 50 μM amanitin, 5 min, 37 °C, HBSS, 20 min preincubation, with and without probenecid, LC-HRMS, n = 3
T1 sequence (Q8TCC7 1-542): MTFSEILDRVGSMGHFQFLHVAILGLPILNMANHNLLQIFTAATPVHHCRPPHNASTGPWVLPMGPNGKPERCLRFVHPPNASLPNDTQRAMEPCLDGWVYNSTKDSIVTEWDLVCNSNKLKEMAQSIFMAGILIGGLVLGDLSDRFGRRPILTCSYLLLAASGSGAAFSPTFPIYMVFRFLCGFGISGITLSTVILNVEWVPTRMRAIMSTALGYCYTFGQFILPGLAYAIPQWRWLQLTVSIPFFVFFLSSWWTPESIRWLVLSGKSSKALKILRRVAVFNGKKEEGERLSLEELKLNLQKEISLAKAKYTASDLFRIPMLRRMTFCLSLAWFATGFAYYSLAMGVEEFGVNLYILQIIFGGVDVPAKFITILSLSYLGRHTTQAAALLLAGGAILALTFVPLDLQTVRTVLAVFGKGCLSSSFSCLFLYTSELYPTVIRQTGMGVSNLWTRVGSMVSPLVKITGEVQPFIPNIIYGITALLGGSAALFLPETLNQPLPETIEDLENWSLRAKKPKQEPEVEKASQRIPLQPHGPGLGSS
Method: (§1) HEK293 cells overexpressing OCT2, MATE2-K, OAT1, OAT3, OATP1B1, and OATP1B3 transporters and HEK293-control cells were maintained in a humidified atmosphere of 5% CO2 at 37 °C in DMEM supplemented with 10% FBS and 5 mM non-essential amino acids. In the case of HEK293-OATP1B1, -OATP1B3, and MATE2-K cells, 2 mM sodium butyrate was added to the culture medium to enhance transport activity. Cells were seeded at 2 × 10^5 cells/well in poly-D-lysine-coated 24-well plates. After 24 h, the growth medium was discarded, and attached cells were washed with HBSS and preincubated for 20 min in HBSS at 37 °C. Stock solutions of α- and β-amanitin and representative inhibitors of transporters were diluted in HBSS to make the final concentration: cimetidine 1 mM (for OCT2), cimetidine 100 μM (for MATE2-K), probenecid 100 μM (for OAT1 and OAT3), and rifampin 100 μM (for OATP1B1 and OATP1B3). Uptake of 50 μM α- and β-amanitin was measured in the absence and presence of representative inhibitors for 5 min at 37 °C. Plates were placed immediately on ice, and cells were then washed twice with 1 mL of ice-cold HBSS. Residual HBSS was removed thoroughly from the plates. Subsequently, 150 μL of 80% methanol containing IS was added to each sample well, and the cell plates were shaken gently for 20 min at 4 °C. The remaining steps were the same as described for plasma sample preparation.

OCT2 = target: T2, OCT2 (Homo sapiens, UniProt O15244); assay: Uptake of amanitins into HEK293-OCT2 cells; assay type: in vitro ADME; conditions: 50 μM amanitin, 5 min, 37 °C, HBSS, 20 min preincubation, with and without cimetidine, LC-HRMS, n = 3
T2 construct: expressed in transfected cells; host or cells: HEK293
T2 sequence (O15244 1-555): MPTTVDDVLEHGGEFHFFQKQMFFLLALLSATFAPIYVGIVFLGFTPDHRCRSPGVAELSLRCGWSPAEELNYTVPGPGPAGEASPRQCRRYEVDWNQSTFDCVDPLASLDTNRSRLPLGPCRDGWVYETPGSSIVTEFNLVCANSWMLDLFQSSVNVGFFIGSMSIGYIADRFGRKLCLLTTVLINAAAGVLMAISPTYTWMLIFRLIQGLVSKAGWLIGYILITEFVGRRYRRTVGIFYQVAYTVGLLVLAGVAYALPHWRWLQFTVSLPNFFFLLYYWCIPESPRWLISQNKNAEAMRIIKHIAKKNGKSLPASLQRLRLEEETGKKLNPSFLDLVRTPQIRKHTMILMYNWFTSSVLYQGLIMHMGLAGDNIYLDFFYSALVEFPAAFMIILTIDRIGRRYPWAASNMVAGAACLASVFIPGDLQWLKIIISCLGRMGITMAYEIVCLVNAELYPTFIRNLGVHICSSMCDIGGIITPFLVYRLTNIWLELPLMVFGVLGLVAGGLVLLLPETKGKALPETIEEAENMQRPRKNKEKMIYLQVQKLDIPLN
Method: as §1

[1] = humans, cited from earlier work; for Concentration in the kidney of amatoxin-intoxicated patients / Concentration in the liver of amatoxin-intoxicated patients: 4 cases; for Plasma concentrations in amatoxin-intoxicated patients: detected in 11 of 43 patients exposed within 36 h; for Total amount excreted in urine in amatoxin-intoxicated patients: measured in 24 patients out of 35 cases
Method: In humans, the plasma and urinary concentrations of α- and β-amanitin were detected in cases of suspected amatoxin poisoning. Among 43 amatoxin-intoxicated patients, amanitin was detected in 11 patients who were exposed to amatoxin within 36 h. The plasma concentrations were 8–190 ng/mL for α-amanitin and 15.9–162 ng/mL for β-amanitin [26]. The total amount of α- and β-amanitin excreted in urine were measured in 24 patients out of 35 cases, and a highly variable amount of α- and β-amanitin was recovered from the urine: 0.03–3.29 mg for α-amanitin and 0.05–5.21 mg for β-amani ... || The intestinal tract, liver, and kidney are vulnerable to amanitin toxicity and also express drug-metabolizing enzymes and transporters that regulate the absorption, distribution, metabolism, and excretion of endogenous substrates and xenobiotics. […] Inhibition of CYP1A2, CYP2C8, CYP2C9, CYP2C19, and CYP3A4 at 100 μM in HLMs was almos ...

OATP1B1 = target: T3, OATP1B1 (Homo sapiens, UniProt Q9Y6L6); assay: Uptake of amanitins into HEK293-OATP1B1 cells; assay type: in vitro ADME; conditions: 50 μM amanitin, 5 min, 37 °C, HBSS, 20 min preincubation, with and without rifampin 100 μM, LC-HRMS, n = 3
T3 construct: expressed in transfected cells; host or cells: HEK293
Method: as §1

MATE2-K = MATE2-K (Homo sapiens, UniProt Q86VL8); assay: Uptake of amanitins into HEK293-MATE2-K cells; assay type: in vitro ADME; design: expressed in transfected cells; host or cells: HEK293; conditions: 50 μM amanitin, 5 min, 37 °C, HBSS, 20 min preincubation, with and without cimetidine 100 μM, LC-HRMS, n = 3
Method: as §1

OATP1B3 = target: T4, OATP1B3 (Homo sapiens, UniProt Q9NPD5); assay: Uptake of amanitins into HEK293-OATP1B3 cells; assay type: in vitro ADME; conditions: 50 μM amanitin, 5 min, 37 °C, HBSS, 20 min preincubation, with and without rifampin 100 μM, LC-HRMS, n = 3
T4 construct: expressed in transfected cells; host or cells: HEK293
Method: as §1

[2] = oral administration of dried powder of Amanita exitialis 60 mg/kg; cited from earlier work
Method: In addition, bile drainage caused more than a 70% reduction in plasma concentration of α- and β-amanitin and reduced hepatic toxicity following the oral administration of dried powder of Amanita exitialis (60 mg/kg). […] However, the toxicokinetics and tissue distribution of β-amanitin (Figure 1) upon ex ...

T3 sequence (Q9Y6L6 whole entry): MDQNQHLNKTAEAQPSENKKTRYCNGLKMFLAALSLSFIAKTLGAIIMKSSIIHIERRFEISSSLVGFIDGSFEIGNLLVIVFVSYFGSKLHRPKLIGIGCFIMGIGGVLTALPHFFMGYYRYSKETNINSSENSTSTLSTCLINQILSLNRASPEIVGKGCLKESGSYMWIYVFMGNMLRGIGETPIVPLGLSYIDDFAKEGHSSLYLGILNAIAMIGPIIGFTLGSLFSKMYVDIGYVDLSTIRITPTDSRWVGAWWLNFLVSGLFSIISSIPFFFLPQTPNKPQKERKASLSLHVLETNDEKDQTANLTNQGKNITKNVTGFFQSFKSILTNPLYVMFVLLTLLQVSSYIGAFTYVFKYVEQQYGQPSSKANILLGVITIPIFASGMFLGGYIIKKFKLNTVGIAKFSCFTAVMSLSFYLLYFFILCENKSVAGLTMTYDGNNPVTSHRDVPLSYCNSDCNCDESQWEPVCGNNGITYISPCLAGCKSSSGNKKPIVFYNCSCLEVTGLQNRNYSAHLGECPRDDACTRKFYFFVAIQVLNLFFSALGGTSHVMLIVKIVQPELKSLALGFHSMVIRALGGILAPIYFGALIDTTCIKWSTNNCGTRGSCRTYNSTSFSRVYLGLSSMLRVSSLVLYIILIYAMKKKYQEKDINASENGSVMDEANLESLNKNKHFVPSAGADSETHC
T4 sequence (Q9NPD5 whole entry): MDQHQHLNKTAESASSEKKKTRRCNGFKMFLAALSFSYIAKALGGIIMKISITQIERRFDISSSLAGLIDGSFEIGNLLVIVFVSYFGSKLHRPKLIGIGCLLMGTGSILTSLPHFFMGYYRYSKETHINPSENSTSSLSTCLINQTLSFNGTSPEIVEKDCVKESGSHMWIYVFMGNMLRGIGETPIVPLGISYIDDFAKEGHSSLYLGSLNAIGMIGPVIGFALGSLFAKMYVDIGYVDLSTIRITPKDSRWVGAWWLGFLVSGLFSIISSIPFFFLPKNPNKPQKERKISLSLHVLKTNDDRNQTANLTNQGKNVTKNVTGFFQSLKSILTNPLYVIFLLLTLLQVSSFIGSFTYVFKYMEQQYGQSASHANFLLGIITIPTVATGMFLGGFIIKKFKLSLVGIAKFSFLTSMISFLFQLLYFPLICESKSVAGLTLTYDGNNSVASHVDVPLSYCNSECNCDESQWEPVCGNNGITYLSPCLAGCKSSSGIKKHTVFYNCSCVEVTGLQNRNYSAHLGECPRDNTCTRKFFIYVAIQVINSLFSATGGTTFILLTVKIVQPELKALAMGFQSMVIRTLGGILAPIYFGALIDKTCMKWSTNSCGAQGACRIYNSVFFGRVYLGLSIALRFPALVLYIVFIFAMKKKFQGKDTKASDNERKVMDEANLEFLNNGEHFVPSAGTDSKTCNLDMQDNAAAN
Chain of MATE2-K (Q86VL8 1-566 isoform Q86VL8-3): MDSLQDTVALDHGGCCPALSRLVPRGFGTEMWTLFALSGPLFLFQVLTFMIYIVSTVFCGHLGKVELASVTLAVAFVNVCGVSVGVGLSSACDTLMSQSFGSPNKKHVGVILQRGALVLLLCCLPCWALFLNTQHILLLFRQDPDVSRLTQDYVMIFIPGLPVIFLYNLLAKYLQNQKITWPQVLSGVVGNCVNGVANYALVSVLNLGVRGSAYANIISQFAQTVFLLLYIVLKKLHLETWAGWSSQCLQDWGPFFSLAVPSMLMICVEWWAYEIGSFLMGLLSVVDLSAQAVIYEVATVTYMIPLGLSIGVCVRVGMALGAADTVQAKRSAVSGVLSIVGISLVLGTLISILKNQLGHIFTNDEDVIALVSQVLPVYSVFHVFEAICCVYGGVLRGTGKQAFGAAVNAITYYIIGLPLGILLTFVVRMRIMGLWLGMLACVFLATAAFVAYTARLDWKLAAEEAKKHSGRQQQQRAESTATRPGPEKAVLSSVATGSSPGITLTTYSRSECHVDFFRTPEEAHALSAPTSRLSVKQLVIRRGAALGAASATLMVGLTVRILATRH

| Compound | Uptake into HEK293-OAT3 cells compared with HEK293 control cells (transport substrate) (OAT3) | Uptake into HEK293-OCT2 cells compared with HEK293 control cells (transport substrate) (OCT2) | Concentration in the kidney of amatoxin-intoxicated patients [1] | Concentration in the liver of amatoxin-intoxicated patients [1] | Plasma concentrations in amatoxin-intoxicated patients [1] [ng/mL] | Total amount excreted in urine in amatoxin-intoxicated patients [1] [mg] | Uptake into HEK293-OATP1B1 cells compared with HEK293 control cells (transport substrate) (OATP1B1) | Uptake into HEK293-MATE2-K cells compared with HEK293 control cells (transport substrate) (MATE2-K) | Uptake into HEK293-OATP1B3 cells compared with HEK293 control cells (transport substrate) (OATP1B3) | Reduction in plasma concentration caused by bile drainage [2] [%] |
| --- | --- | --- | --- | --- | --- | --- | --- | --- | --- | --- |
| α-amanitin [reference compound] | but not α-amanitin, showed significantly greater uptake | not involved in the active transport | 122–1719 ng/g kidney | 10–19 ng/g liver | 8 to 190 | 0.03 to 3.29 | significantly increased | not involved in the active transport | significantly increased | > 70 |
| CC[C@H](C)[C@@H]1NC(=O)CNC(=O)[C@@H]2Cc3c([nH]c4cc(O)ccc34)[S@+]([O-])C[C@H](NC(=O)CNC1=O)C(=O)N[C@@H](CC(=O)O)C(=O)N1C[C@H](O)C[C@H]1C(=O)N[C@@H]([C@@H](C)[C@@H](O)CO)C(=O)N2 [β-amanitin] | significantly greater uptake; also recorded: substrate | not involved in the active transport | 1017–1391 ng/g kidney | 170.8–3298 ng/g liver | 15.9 to 162 | 0.05 to 5.21 | significantly increased; also recorded: substrate | not involved in the active transport | significantly increased; also recorded: substrate | > 70 |
